Measurements published in patent US20260022142A1, “MACROCYCLIC IMMUNOMODULATORS” (Bristol-Myers Squibb Company, priority 2022, published 2026).
Numbered stars: 1 amine (or outer) side, 2 acyl side, 3 side chain; on linkers, the order of the positions; unused ones are H or OH. Bridge positions count the residues as written; N and C are the ends. Square brackets hold non-standard residues; d marks the D form. Peptide text beside a SMILES is read from it. * marks the point of attachment. ξ: configuration not given here. Phe(4-COOH) = N[C@@H](Cc1ccc(C(=O)O)cc1)C(=O)O; Bip = N[C@@H](Cc1ccc(-c2ccccc2)cc1)C(=O)O; Phe(3-Me) = Cc1cccc(C[C@H](N)C(=O)O)c1; βAsp = O=C(O)[C@H](CC(=O)[*:2])N[*:1]; Bta = N[C@@H](Cc1csc2ccccc12)C(=O)O; hArg = N=C(N)NCCCC[C@H](N)C(=O)O; 4Pal = N[C@@H](Cc1ccncc1)C(=O)O; Cha = N[C@@H](CC1CCCCC1)C(=O)O; Cit = NC(=O)NCCC[C@H](N)C(=O)O; Ile(3ξ) = CCC(C)[C@H](N)C(=O)O; Thr(3ξ) = CC(O)[C@H](N)C(=O)O; 12Ado = NCCCCCCCCCCCC(=O)O; dOrn = NCCC[C@@H](N)C(=O)O; Carboxymethyl = O=C(O)C*; Orn = NCCC[C@H](N)C(=O)O; Aun = NCCCCCCCCCCC(=O)O; Dab = NCC[C@H](N)C(=O)O; AEEA = NCCOCCOCC(=O)O

Target: T1, PD-1/PD-L1 interaction (PE-labeled human PD-L1-Ig binding to Jurkat cell line over-expressing human PD-1) (Homo sapiens, UniProt Q15116)
T1 construct: expressed in transfected cells; host or cells: Jurkat
Assay: Jurkat-PD-1 Cell Binding High-Content Screening Assay (CBA)
Format: cell-based
Conditions: Jurkat cell line over-expressing human PD-1; PE-labeled PD-L1-Ig 20 nM final; read-out: Jurkat hPD1-PDL1 IC50
Procedure, shortened: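 Binding of fluorescent PD-L1-Ig (20 nM final) to Jurkat-PD-1 cells was measured by automated imaging after 1 h, following a 2 h compound pre-treatment at 37° C.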

T1 sequence (Q15116 25-288): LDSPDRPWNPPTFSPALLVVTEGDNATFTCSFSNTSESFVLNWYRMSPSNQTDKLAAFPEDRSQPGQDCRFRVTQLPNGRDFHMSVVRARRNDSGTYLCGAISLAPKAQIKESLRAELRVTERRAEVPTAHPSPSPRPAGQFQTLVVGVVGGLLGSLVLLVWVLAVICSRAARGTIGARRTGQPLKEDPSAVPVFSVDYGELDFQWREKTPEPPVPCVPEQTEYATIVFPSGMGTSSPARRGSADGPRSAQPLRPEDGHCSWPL

| SMILES | IC50 [nM] |
| --- | --- |
| Cc1cccc(C[C@@H]2NC(=O)[C@H](CC(=O)O)NC(=O)[C@H](Cc3ccc(OCC(=O)O)cc3)NC(=O)[C@H](CCCNC(N)=O)NC(=O)CSC[C@@H](C(=O)N[C@@H](CCCN)C(=O)NCCCCCCCCCCC(=O)O)NC(=O)[C@H](CO)NC(=O)[C@H](C(C)C)NC(=O)[C@H](CC3CCCCC3)NC(=O)[C@H](CCN)NC(=O)[C@@H](CC(C)C)NC(=O)[C@H](CCCN)NC(=O)[C@H](C(C)C)NC(=O)[C@H](Cc3ccc(-c4ccccc4)cc3)NC(=O)[C@H](C(C)C)NC2=O)c1 [Compound 3049] ({CH2CO}-[Cit]Y(Carboxymethyl)D[Phe(3-Me)]V[Bip]V[Orn][dL][Dab][Cha]VSC[Orn][Aun]-OH; thioether N-14) | 39.5 |
| CC(C)C[C@H]1NC(=O)[C@H](CCCN)NC(=O)[C@H](Cc2c[nH]cn2)NC(=O)[C@H](Cc2ccc(-c3ccccc3)cc2)NC(=O)[C@H](C(C)C)NC(=O)[C@H](Cc2c[nH]c3ccccc23)NC(=O)[C@H](CC(=O)O)NC(=O)[C@H](Cc2ccc(OCC(=O)O)cc2)NC(=O)[C@H](Cc2ccccc2)NC(=O)CSC[C@@H](C(=O)N[C@@H](CCCN)C(=O)NCCOCCOCC(=O)NCCCCCCCCCCC(=O)O)NC(=O)[C@H](CO)NC(=O)[C@H](C(C)C)NC(=O)[C@H](CC2CCCCC2)NC(=O)[C@H](CCN)NC1=O [Compound 3057] ({CH2CO}-FY(Carboxymethyl)DWV[Bip]H[Orn][dL][Dab][Cha]VSC[Orn][AEEA][Aun]-OH; thioether N-14) | 53.9 |
| CCC(C)[C@@H]1NC(=O)[C@H](Cc2ccc(-c3ccccc3)cc2)NC(=O)[C@H](C(C)C)NC(=O)[C@H](Cc2c[nH]c3ccccc23)NC(=O)[C@H](CC(=O)O)NC(=O)[C@H](Cc2ccc(OCC(=O)O)cc2)NC(=O)[C@H](CCCCNC(=N)N)NC(=O)CSC[C@@H](C(=O)N[C@H](CO)C(=O)NCCOCCOCC(=O)NCCCCCCCCCCC(=O)O)NC(=O)[C@H](CO)NC(=O)[C@H](C(C)C)NC(=O)[C@H](CC2CCCCC2)NC(=O)[C@H](CCN)NC(=O)[C@@H](CC(C)C)NC(=O)[C@H](CCCN)NC1=O (stereo partly drawn) [Compound 3060] ({CH2CO}-[hArg]Y(Carboxymethyl)DWV[Bip][Ile(3ξ)][Orn][dL][Dab][Cha]VSC[dS][AEEA][Aun]-OH; thioether N-14) | 17.8 |
| CC(C)C[C@H]1NC(=O)[C@H](CCCN)NC(=O)[C@H](CCC(=O)O)NC(=O)[C@H](Cc2ccc(-c3ccccc3)cc2)NC(=O)[C@H](C(C)C)NC(=O)[C@H](Cc2c[nH]c3ccccc23)NC(=O)[C@H](CC(=O)O)NC(=O)[C@H](Cc2ccc(C(=O)O)cc2)NC(=O)[C@H](Cc2ccc(OCC(=O)O)cc2)NC(=O)CSC[C@@H](C(=O)NCC(=O)NCCOCCOCC(=O)N[C@@H](CCCN)C(=O)NCCCCCCCCCCCC(=O)O)NC(=O)[C@H](CO)NC(=O)[C@H](C(C)C)NC(=O)[C@H](CC2CCCCC2)NC(=O)[C@H](CCN)NC1=O [Compound 3062] ({CH2CO}-Y(Carboxymethyl)[Phe(4-COOH)]DWV[Bip]E[Orn][dL][Dab][Cha]VSCG[AEEA][Orn][12Ado]-OH; thioether N-14) | 33 |
| CC(C)C[C@H]1NC(=O)[C@H](CCCN)NC(=O)[C@H](C(C)C)NC(=O)[C@H](Cc2ccc(-c3ccccc3)cc2)NC(=O)[C@H](C(C)C)NC(=O)[C@H](Cc2c[nH]c3ccccc23)NC(=O)[C@H](CC(=O)O)NC(=O)[C@H](Cc2ccc(C(=O)O)cc2)NC(=O)[C@H](Cc2ccc(OCC(=O)O)cc2)NC(=O)CSC[C@@H](C(=O)N[C@H](CO)C(=O)NCCOCCOCC(=O)N[C@@H](CCCN)C(=O)NCCCCCCCCCCCC(=O)O)NC(=O)[C@H](CO)NC(=O)[C@H](C(C)C)NC(=O)[C@H](CC2CCCCC2)NC(=O)[C@H](CCN)NC1=O [Compound 3064] ({CH2CO}-Y(Carboxymethyl)[Phe(4-COOH)]DWV[Bip]V[Orn][dL][Dab][Cha]VSC[dS][AEEA][Orn][12Ado]-OH; thioether N-14) | 32.1 |
| CC(C)C[C@H]1NC(=O)[C@H](CCCN)NC(=O)[C@H](C(C)C)NC(=O)[C@H](Cc2ccc(-c3ccccc3)cc2)NC(=O)[C@H](C(C)C)NC(=O)[C@H](Cc2csc3ccccc23)NC(=O)[C@H](CC(=O)O)NC(=O)[C@H](Cc2ccc(OCC(=O)O)cc2)NC(=O)[C@H](CCCCNC(=N)N)NC(=O)CSC[C@@H](C(=O)NCC(=O)NCCOCCOCC(=O)N[C@H](CCCN)C(=O)NCCCCCCCCCCC(=O)O)NC(=O)[C@H](CO)NC(=O)[C@H](C(C)C)NC(=O)[C@H](CC2CCCCC2)NC(=O)[C@H](CCN)NC1=O [Compound 3065] ({CH2CO}-[hArg]Y(Carboxymethyl)D[Bta]V[Bip]V[Orn][dL][Dab][Cha]VSCG[AEEA][dOrn][Aun]-OH; thioether N-14) | 19.2 |

More lines, in order of falling IC50, values ahead:

| IC50 [nM] | SMILES |
| --- | --- |
| 17.7 | CC(C)C[C@H]1NC(=O)[C@H](CCCN)NC(=O)[C@H](Cc2c[nH]cn2)NC(=O)[C@H](Cc2ccc(-c3ccccc3)cc2)NC(=O)[C@H](C(C)C)NC(=O)[C@H](Cc2c[nH]c3ccccc23)NC(=O)[C@H](CC(=O)O)NC(=O)[C@H](Cc2ccc(OCC(=O)O)cc2)NC(=O)[C@H](C(C)O)NC(=O)CSC[C@@H](C(=O)N[C@@H](CC(=O)NCCOCCOCC(=O)N[C@@H](CCCN)C(=O)NCCCCCCCCCCC(=O)O)C(=O)O)NC(=O)[C@H](CO)NC(=O)[C@H](C(C)C)NC(=O)[C@H](CC2CCCCC2)NC(=O)[C@H](CCN)NC1=O (stereo partly drawn) [Compound 3056] ({CH2CO}-[Thr(3ξ)]Y(Carboxymethyl)DWV[Bip]H[Orn][dL][Dab][Cha]VSC[βAsp][AEEA][Orn][Aun]-OH; thioether N-14) |
| 14.6 | CC(C)C[C@H]1NC(=O)[C@H](CCCN)NC(=O)[C@H](C(C)C)NC(=O)[C@H](Cc2ccc(-c3ccccc3)cc2)NC(=O)[C@H](C(C)C)NC(=O)[C@H](Cc2c[nH]c3ccccc23)NC(=O)[C@H](CC(=O)O)NC(=O)[C@H](Cc2ccc(OCC(=O)O)cc2)NC(=O)[C@H](Cc2c[nH]cn2)NC(=O)CSC[C@@H](C(=O)N[C@H](C)C(=O)NCCOCCOCC(=O)NCCCCCCCCCCC(=O)O)NC(=O)[C@H](C(C)O)NC(=O)[C@H](C(C)C)NC(=O)[C@H](CC2CCCCC2)NC(=O)[C@H](CCN)NC1=O (stereo partly drawn) [Compound 3054] ({CH2CO}-HY(Carboxymethyl)DWV[Bip]V[Orn][dL][Dab][Cha]V[Thr(3ξ)]C[dA][AEEA][Aun]-OH; thioether N-14) |
| 13.4 | CC(C)C[C@H]1NC(=O)[C@H](CCCN)NC(=O)[C@H](CCC(=O)O)NC(=O)[C@H](Cc2ccc(-c3ccccc3)cc2)NC(=O)[C@H](C(C)C)NC(=O)[C@H](Cc2c[nH]c3ccccc23)NC(=O)[C@H](CC(=O)O)NC(=O)[C@H](Cc2ccc(C(=O)O)cc2)NC(=O)[C@H](Cc2ccc(OCC(=O)O)cc2)NC(=O)CSC[C@@H](C(=O)N[C@H](CO)C(=O)NCCOCCOCC(=O)N[C@@H](CCCN)C(=O)NCCCCCCCCCCCC(=O)O)NC(=O)[C@H](CO)NC(=O)[C@H](C(C)C)NC(=O)[C@H](CC2CCCCC2)NC(=O)[C@H](CCN)NC1=O [Compound 3063] ({CH2CO}-Y(Carboxymethyl)[Phe(4-COOH)]DWV[Bip]E[Orn][dL][Dab][Cha]VSC[dS][AEEA][Orn][12Ado]-OH; thioether N-14) |
| 13 | CCC(C)[C@@H]1NC(=O)[C@H](Cc2ccc(-c3ccccc3)cc2)NC(=O)[C@H](C(C)C)NC(=O)[C@H](Cc2c[nH]c3ccccc23)NC(=O)[C@H](CC(=O)O)NC(=O)[C@H](Cc2ccc(C(=O)O)cc2)NC(=O)[C@H](Cc2ccncc2)NC(=O)CSC[C@@H](C(=O)N[C@H](CC(N)=O)C(=O)NCCOCCOCC(=O)N[C@@H](CCCN)C(=O)NCCCCCCCCCCC(=O)O)NC(=O)[C@H](CO)NC(=O)[C@H](C(C)C)NC(=O)[C@H](CC2CCCCC2)NC(=O)[C@H](CCN)NC(=O)[C@@H](CC(C)C)NC(=O)[C@H](CCCN)NC1=O (stereo partly drawn) [Compound 3058] ({CH2CO}-[4Pal][Phe(4-COOH)]DWV[Bip][Ile(3ξ)][Orn][dL][Dab][Cha]VSC[dN][AEEA][Orn][Aun]-OH; thioether N-14) |
| 12.2 | CCC(C)[C@@H]1NC(=O)[C@H](Cc2ccc(-c3ccccc3)cc2)NC(=O)[C@H](C(C)C)NC(=O)[C@H](Cc2c[nH]c3ccccc23)NC(=O)[C@H](CC(=O)O)NC(=O)[C@H](Cc2ccc(C(=O)O)cc2)NC(=O)[C@H](Cc2ccncc2)NC(=O)CSC[C@@H](C(=O)N[C@H](CO)C(=O)NCCOCCOCC(=O)N[C@@H](CCCN)C(=O)NCCCCCCCCCCC(=O)O)NC(=O)[C@H](CO)NC(=O)[C@H](C(C)C)NC(=O)[C@H](CC2CCCCC2)NC(=O)[C@H](CCN)NC(=O)[C@@H](CC(C)C)NC(=O)[C@H](CCCN)NC1=O (stereo partly drawn) [Compound 3059] ({CH2CO}-[4Pal][Phe(4-COOH)]DWV[Bip][Ile(3ξ)][Orn][dL][Dab][Cha]VSC[dS][AEEA][Orn][Aun]-OH; thioether N-14) |
| 10.1 | CC(C)C[C@H]1NC(=O)[C@H](CCCN)NC(=O)[C@H](C(C)C)NC(=O)[C@H](Cc2ccc(-c3ccccc3)cc2)NC(=O)[C@H](C(C)C)NC(=O)[C@H](Cc2c[nH]c3ccccc23)NC(=O)[C@H](CC(=O)O)NC(=O)[C@H](Cc2ccc(OCC(=O)O)cc2)NC(=O)[C@H](C(C)O)NC(=O)CSC[C@@H](C(=O)NCCOCCOCC(=O)N[C@@H](CCCCN)C(=O)NCCCCCCCCCCC(=O)O)NC(=O)[C@H](C(C)O)NC(=O)[C@H](C(C)C)NC(=O)[C@H](CC2CCCCC2)NC(=O)[C@H](CCN)NC1=O (stereo partly drawn) [Compound 3052] ({CH2CO}-[Thr(3ξ)]Y(Carboxymethyl)DWV[Bip]V[Orn][dL][Dab][Cha]V[Thr(3ξ)]C[AEEA]K[Aun]-OH; thioether N-14) |
| 8.8 | CC(C)C[C@H]1NC(=O)[C@H](CCCN)NC(=O)[C@H](C(C)C)NC(=O)[C@H](Cc2ccc(-c3ccccc3)cc2)NC(=O)[C@H](C(C)C)NC(=O)[C@H](Cc2c[nH]c3ccccc23)NC(=O)[C@H](CC(=O)O)NC(=O)[C@H](Cc2ccc(OCC(=O)O)cc2)NC(=O)[C@H](C(C)O)NC(=O)CSC[C@@H](C(=O)N[C@H](CC(N)=O)C(=O)NCCOCCOCC(=O)NCCCCCCCCCCC(=O)O)NC(=O)[C@H](CO)NC(=O)[C@H](C(C)C)NC(=O)[C@H](CC2CCCCC2)NC(=O)[C@H](CCN)NC1=O (stereo partly drawn) [Compound 3053] ({CH2CO}-[Thr(3ξ)]Y(Carboxymethyl)DWV[Bip]V[Orn][dL][Dab][Cha]VSC[dN][AEEA][Aun]-OH; thioether N-14) |
